From patent US20250241890A1, “1,4-DIUREAS AND 1,4-DITHIOUREAS AND USES THEREOF” (Purdue Research Foundation, priority 2024, published 2025)
“Also recorded” adds a separate entry of the source.

Experiments:
Assay type in all cases: biochemical
α-synuclein (α-syn) [1] = molecular target: T1, α-synuclein (α-syn) (Homo sapiens, UniProt P37840); assay: PICUP assay of α-syn oligomer formation; conditions: α-syn 60 μM, compound 50 μM (~molar ratio 1:1)
T1 construct: purchased rPeptide (Watkinsville, GA)
Procedure: Chemical and peptide source. Dimethylsulfoxide (DMSO) and thioflavin-T (ThT) were purchased from Alfa Aesar (Ward Hill, MA). Recombinant α-synuclein (α-syn) was procured from rPeptide (WatKinsville, GA). The recombinant p-tau isoform 1N4R was prepared as published previously (Fortin et al. 2021, Sui et al. 2015, Liu et al. 2020). Concerning the preparation of tau 0N4R, a bacterial expression plasmid consisting of the vector pET30a carrying a cDNA encoding the human Tau 0N4R isoform was a kind gift of Dr. Benjamin Wolozin (Boston University). E. coli stock (Rosetta BL21 E. coli (CamR) containing pET30a [0N4R tau wt] (KanR)) was grown in LB medium supplemented with kanamycin (50 μg/mL) and chloramphenicol (50 μg/mL). Protein over-expression was induced by the addition of 1 mM IPTG for ˜18 hours at 37° C., and cells were pelleted by centrifugation at 6,000 g for 15 minutes at 4° C. The cells were resuspended in lysis buffer (10 mM Hepes, pH 7.4, 50 mM NaCl, 1 mM MgCl2, 1 mM PMSF, 1× PIC, and 0.5 mM DTT) and lysed by sonication at 30 seconds “On” and 1 minute “Off” at ˜30-45% power for ˜3-5 minutes. Lysate was centrifuged at 10,000 rpm for 10 minutes at 4° C., and supernatant was transferred with 7.8 ml (total) of 3M NaCl. The lysate was incubated for 10 minutes in 80° C. water bath, then cooled for 10 minutes in an ice bath. The lysate was centrifuged at 10,000 rpm at 4° C. for 10 minutes, and the supernatant was transferred to a new tube. The supernatant was dialyzed overnight against cation exchange buffer (50 mM MES, […], 1 mM DTT, pH 6.0). The dialysate was loaded onto a HiPrep SP HP column, and proteins were eluted with a linear gradient ranging from 50 mM to 1 M NaCl. General Characterizations. ^1H and ^13C {1H} NMR spectra were recorded using a 500 MHz Bruker instrument working at a frequency of 500 MHz for ^1H and at 126 MHz for ^13C. Chemical shifts are reported in ppm using residual solvent resonances as internal reference (δ 2.50 and δ 39.51 for ^1H and ^13C in DMSO-d6, respectively). ^1H NMR data are reported as follows. b=broad, s=singlet, d=doublet, t=triplet, q=quartet, and m=multiplet. Coupling constants are given in hertz. The purity of all compounds and synthetic intermediates was judged to be 95% or better based on ^1H NMR. IR measurements were performed in a Nicolet FTIR as thin films in the Purdue Drug Discovery facility. High-resolution mass spectrometry analyses were conducted at the MSU Mass Spectrometry facility. Thioflavin fluorescence assays. Thioflavin fluorescence assays were used to monitor fibril formation of commercial recombinant α-syn at a final concentration of 2 μM and treated with control DMSO and different compounds. The recombinant α-syn obtained from rPeptide has been validated with proper quality control to confirm the monomeric state of the protein. Kinetics of fibril formation have been performed using ThT as published previously.^6, 12, 13, 24 The fluorescence emission experiments were performed with the excitation and emission wavelengths set at 440 and 485 nm, respectively, with a Synergy HT multi-mode microplate reader (BioTek, Winooski, VT). Samples were measured in three replicates. Experiments were repeated three times using different α-syn stock solutions. For each time point, arbitrary units of fluorescence were calculated from the mean values normalized against the maximum value. The percentage of fluorescence intensity at the plateau phase in Table 1 was expressed as mean #SEM. Concerning the dose response curve depicted in FIG. 2, the data were plotted using GraphPad Prism. Photo-induced Cross-linking of Unmodified Proteins (PICUP) Assay. […] Different compounds were added to the protein solution at a final concentration of 50 μM, resulting in a molar ratio of 1:1. PICUP assays were performed with the following controls: samples without light exposition, without Ru(bpy) or ammonium persulfate, and without compound (i.e., 0.125% DMSO). […]

α-synuclein (α-syn) [2] = molecular target: T1, α-synuclein (α-syn); assay: Thioflavin T (ThT) fluorescence assay of α-syn fibril formation; conditions: α-syn 2 μM final concentration, compounds at 100 μM, average of three replicates with SEM; read-out: % ThT intensity (100 μM), maximum ThT intensity in percentage
Procedure: Chemical and peptide source. Dimethylsulfoxide (DMSO) and thioflavin-T (ThT) were purchased from Alfa Aesar (Ward Hill, MA). Recombinant α-synuclein (α-syn) was procured from rPeptide (WatKinsville, GA). The recombinant p-tau isoform 1N4R was prepared as published previously (Fortin et al. 2021, Sui et al. 2015, Liu et al. 2020). Concerning the preparation of tau 0N4R, a bacterial expression plasmid consisting of the vector pET30a carrying a cDNA encoding the human Tau 0N4R isoform was a kind gift of Dr. Benjamin Wolozin (Boston University). E. coli stock (Rosetta BL21 E. coli (CamR) containing pET30a [0N4R tau wt] (KanR)) was grown in LB medium supplemented with kanamycin (50 μg/mL) and chloramphenicol (50 μg/mL). Protein over-expression was induced by the addition of 1 mM IPTG for ˜18 hours at 37° C., and cells were pelleted by centrifugation at 6,000 g for 15 minutes at 4° C. The cells were resuspended in lysis buffer (10 mM Hepes, pH 7.4, 50 mM NaCl, 1 mM MgCl2, 1 mM PMSF, 1× PIC, and 0.5 mM DTT) and lysed by sonication at 30 seconds “On” and 1 minute “Off” at ˜30-45% power for ˜3-5 minutes. Lysate was centrifuged at 10,000 rpm for 10 minutes at 4° C., and supernatant was transferred with 7.8 ml (total) of 3M NaCl. The lysate was incubated for 10 minutes in 80° C. water bath, then cooled for 10 minutes in an ice bath. The lysate was centrifuged at 10,000 rpm at 4° C. for 10 minutes, and the supernatant was transferred to a new tube. The supernatant was dialyzed overnight against cation exchange buffer (50 mM MES, […], 1 mM DTT, pH 6.0). The dialysate was loaded onto a HiPrep SP HP column, and proteins were eluted with a linear gradient ranging from 50 mM to 1 M NaCl. General Characterizations. ^1H and ^13C {1H} NMR spectra were recorded using a 500 MHz Bruker instrument working at a frequency of 500 MHz for ^1H and at 126 MHz for ^13C. Chemical shifts are reported in ppm using residual solvent resonances as internal reference (δ 2.50 and δ 39.51 for ^1H and ^13C in DMSO-d6, respectively). ^1H NMR data are reported as follows. b=broad, s=singlet, d=doublet, t=triplet, q=quartet, and m=multiplet. Coupling constants are given in hertz. The purity of all compounds and synthetic intermediates was judged to be 95% or better based on ^1H NMR. IR measurements were performed in a Nicolet FTIR as thin films in the Purdue Drug Discovery facility. High-resolution mass spectrometry analyses were conducted at the MSU Mass Spectrometry facility. Thioflavin fluorescence assays. […] The recombinant α-syn obtained from rPeptide has been validated with proper quality control to confirm the monomeric state of the protein. Kinetics of fibril formation have been performed using ThT as published previously.^6, 12, 13, 24 The fluorescence emission experiments were performed with the excitation and emission wavelengths set at 440 and 485 nm, respectively, with a Synergy HT multi-mode microplate reader (BioTek, Winooski, VT). Samples were measured in three replicates. Experiments were repeated three times using different α-syn stock solutions. For each time point, arbitrary units of fluorescence were calculated from the mean values normalized against the maximum value. The percentage of fluorescence intensity at the plateau phase in Table 1 was expressed as mean #SEM. Concerning the dose response curve depicted in FIG. 2, the data were plotted using GraphPad Prism. Photo-induced Cross-linking of Unmodified Proteins (PICUP) Assay. To induce oligomerization by cross-linking, α-syn (from Rpeptide, LLC) was diluted in 10 mM phosphate buffer (pH 7.4) to reach a final concentration of 50 μM. Different compounds were added to the protein solution at a final concentration of 50 μM, resulting in a molar ratio of 1:1. PICUP assays were performed with the following controls: samples without light exposition, without Ru(bpy) or ammonium persulfate, and without compound (i.e., 0.125% DMSO). […]

tau isoform 0N4R = molecular target: T2, tau isoform 0N4R (Homo sapiens, UniProt P10636); assay: PICUP assay of tau 0N4R oligomer formation; conditions: tau 10 μM, compound 50 μM (molar ratio 1:5)
T2 construct: made in house; host or cells: Rosetta BL21 E. coli
T2 sequence (P10636 1-383 isoform P10636-6): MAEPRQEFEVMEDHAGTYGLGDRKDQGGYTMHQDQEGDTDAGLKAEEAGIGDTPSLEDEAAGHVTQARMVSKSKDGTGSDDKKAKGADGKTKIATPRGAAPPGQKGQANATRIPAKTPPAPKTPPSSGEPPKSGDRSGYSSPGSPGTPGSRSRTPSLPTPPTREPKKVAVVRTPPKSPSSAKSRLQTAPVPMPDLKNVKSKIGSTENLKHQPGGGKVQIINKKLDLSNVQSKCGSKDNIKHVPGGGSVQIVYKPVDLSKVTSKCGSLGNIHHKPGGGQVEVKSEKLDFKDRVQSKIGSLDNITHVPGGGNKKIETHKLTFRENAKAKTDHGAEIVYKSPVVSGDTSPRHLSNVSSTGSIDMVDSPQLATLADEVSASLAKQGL
Procedure: FIG. 5. […] Compounds 1, 2, and 8 were selected for their α-syn anti-oligomerization activity. Compound 7 was used as di-urea counterpart of compound 8, as compound 1 is the di-urea counterpart of compound 2, a dithiourea derivative. Tau (10 μM) was cross-linked (PICUP assay) with different concentrations of the di-substituted aminoindolyl derivatives at 50 μM (molar ratio 1:5).
Chemical and peptide source. Dimethylsulfoxide (DMSO) and thioflavin-T (ThT) were purchased from Alfa Aesar (Ward Hill, MA). Recombinant α-synuclein (α-syn) was procured from rPeptide (WatKinsville, GA). The recombinant p-tau isoform 1N4R was prepared as published previously (Fortin et al. 2021, Sui et al. 2015, Liu et al. 2020). Concerning the preparation of tau 0N4R, a bacterial expression plasmid consisting of the vector pET30a carrying a cDNA encoding the human Tau 0N4R isoform was a kind gift of Dr. Benjamin Wolozin (Boston University). E. coli stock (Rosetta BL21 E. coli (CamR) containing pET30a [0N4R tau wt] (KanR)) was grown in LB medium supplemented with kanamycin (50 μg/mL) and chloramphenicol (50 μg/mL). […] General Characterizations. ^1H and ^13C {1H} NMR spectra were recorded using a 500 MHz Bruker instrument working at a frequency of 500 MHz for ^1H and at 126 MHz for ^13C. […] Thioflavin fluorescence assays. Thioflavin fluorescence assays were used to monitor fibril formation of commercial recombinant α-syn at a final concentration of 2 μM and treated with control DMSO and different compounds. […] Kinetics of fibril formation have been performed using ThT as published previously.^6, 12, 13, 24 The fluorescence emission experiments were performed with the excitation and emission wavelengths set at 440 and 485 nm, respectively, with a Synergy HT multi-mode microplate reader (BioTek, Winooski, VT). Samples were measured in three replicates. […] For each time point, arbitrary units of fluorescence were calculated from the mean values normalized against the maximum value. The percentage of fluorescence intensity at the plateau phase in Table 1 was expressed as mean #SEM. […]

With S=C(Nc1ccc(NC(=S)Nc2ccc3[nH]ccc3c2)cc1)Nc1ccc2[nH]ccc2c1 [Compound 4, 3-(1H-indol-5-yl)-1-(4-{[(1H-indol-5-yl)carbamothioyl]amino}phenyl)thiourea] the “effect on α-syn oligomer formation (high molecular weight bands) by PICUP” value (“effect on α-syn oligomer formation” below) (α-synuclein (α-syn) [1]) was “mediocre; also recorded: reduced slightly” and the remaining activity at 100 µM (α-synuclein (α-syn) [2]) was 46.2%.
With O=C(Nc1ccc(NC(=O)Nc2ccc3cc[nH]c3c2)cc1)Nc1ccc2cc[nH]c2c1 [Compound 5, 3-(1H-indol-6-yl)-1-(4-{[(1H-indol-6-yl)carbamoyl]amino}phenyl)urea] the “effect on α-syn oligomer formation” value (α-synuclein (α-syn) [1]) was “mediocre; also recorded: reduced slightly” and the remaining activity at 100 µM (α-synuclein (α-syn) [2]) was 58.7%.
With S=C(Nc1ccc(NC(=S)Nc2ccc3cc[nH]c3c2)cc1)Nc1ccc2cc[nH]c2c1 [Compound 6, 3-(1H-indol-6-yl)-1-(4-{[(1H-indol-6-yl)carbamothioyl]amino}phenyl)thiourea] the “effect on α-syn oligomer formation” value (α-synuclein (α-syn) [1]) was “mediocre; also recorded: reduced slightly” and the remaining activity at 100 µM (α-synuclein (α-syn) [2]) was 36.1%.
O=C(Nc1ccc(NC(=O)Nc2cccc3cc[nH]c23)cc1)Nc1cccc2cc[nH]c12 [Compound 7, 3-(1H-indol-7-yl)-1-(4-{[(1H-indol-7-yl)carbamoyl]amino}phenyl)urea] was tested, and the “effect on tau 0N4R oligomer formation by PICUP” value (tau isoform 0N4R) was “None of these compounds were able to reduce the tau 0N4R oligomer formation” and the remaining activity at 100 µM (α-synuclein (α-syn) [2]) was 52.4%.
